# Source: patent publication US9550796B2, “Pyrrolopyrrolone derivatives and their use as BET inhibitors” (NOVARTIS AG, priority 2013, dated 2017)
# Columns and labels:
# [1] = target: BRD4 (Homo sapiens (Human), UniProt O60885); experiment: TR-FRET in-vitro binding assay for BRD4; settings: 45 nM His-Brd4(44-477), acetyl-histone H4 (AcK 5, 8, 12, 16) peptide
# Summary of the method: (§1)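 Incubation at 30° C lasted 35 min, followed by TR-FRET measurement; each compound was tested as 8 single-point concentrations.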
# [2] = target: BRD2 (Homo sapiens (Human), UniProt P25440); experiment: TR-FRET in-vitro binding assay for BRD2; settings: 45 nM His-Brd2(60-472), acetyl-histone H4 (AcK 5, 8, 12, 16) peptide
# Summary of the method: as §1
# [3] = target: BRD3 (Homo sapiens (Human), UniProt Q15059); experiment: TR-FRET in-vitro binding assay for BRD3; settings: 45 nM His-Brd3(20-477), acetyl-histone H4 (AcK 5, 8, 12, 16) peptide
# Summary of the method: as §1
# [4] = target: CREBBP (Homo sapiens (Human), UniProt Q92793); experiment: AlphaScreen in-vitro binding assay for CREBBP; settings: 324 nM His-CREBBP (1081-1197), acetyl-histone H4 (AcK 5, 8, 12) peptide
# Summary of the method: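 IC50 values were derived by non-linear regression of percent inhibition across 8 compound concentrations. Protein was His-tagged CREBBP bromodomain (1081-1197), peptide acetyl-histone H4 (AcK 5, 8, 12), in HEPES pH 7.5 buffer. Read-out was AlphaScreen with Ni-chelate acceptor and streptavidin donor beads, 35 min at 30° C then 60 min at RT.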
# [5] = tested on: MV-4-11; experiment: Cell growth inhibition assay (CellTiter-Glo), MV-4-11; format: cell-based, human; settings: MV-4-11 cells, 4 days; for GI50: Homo sapiens, MV4-11, 96 h, half-maximal growth inhibition; for MV-4-11 TGI: total growth inhibition
# Summary of the method: (§2)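 Cells were exposed 4 days at 37 °C, 5% CO2 to 3-fold serial dilutions starting at 10 μM (0.1% DMSO vehicle). Viability was measured as ATP by CellTiter-Glo luminescence, corrected for background and a day-0 plate. IC50 and TGI were derived by four-parameter fitting.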
# [6] = tested on: THP-1; experiment: Cell growth inhibition assay (CellTiter-Glo), THP-1; format: cell-based, human; settings: THP-1 cells, 4 days; for GI50: Homo sapiens, 96 h, half-maximal growth inhibition; for THP-1 TGI: total growth inhibition
# Summary of the method: as §2
# [7] = tested on: K-562; experiment: Cell growth inhibition assay (CellTiter-Glo), K-562; format: cell-based, human; settings: K-562 cells, 4 days; for GI50: Homo sapiens, K562, 96 h, half-maximal growth inhibition; for K-562 TGI: total growth inhibition
# Summary of the method: as §2
# BRD2, sequence (P25440 60-472): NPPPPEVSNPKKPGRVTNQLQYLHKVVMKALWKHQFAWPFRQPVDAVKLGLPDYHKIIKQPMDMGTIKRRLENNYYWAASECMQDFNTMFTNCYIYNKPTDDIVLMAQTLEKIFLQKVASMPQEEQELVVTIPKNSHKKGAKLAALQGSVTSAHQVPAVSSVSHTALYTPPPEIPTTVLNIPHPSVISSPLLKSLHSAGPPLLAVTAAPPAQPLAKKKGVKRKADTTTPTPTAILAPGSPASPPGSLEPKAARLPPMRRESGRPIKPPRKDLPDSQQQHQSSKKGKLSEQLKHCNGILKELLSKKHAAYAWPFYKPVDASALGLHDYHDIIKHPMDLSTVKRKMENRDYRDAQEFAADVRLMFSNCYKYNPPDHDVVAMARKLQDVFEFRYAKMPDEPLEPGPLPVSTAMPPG
# CREBBP, sequence (Q92793 1081-1197): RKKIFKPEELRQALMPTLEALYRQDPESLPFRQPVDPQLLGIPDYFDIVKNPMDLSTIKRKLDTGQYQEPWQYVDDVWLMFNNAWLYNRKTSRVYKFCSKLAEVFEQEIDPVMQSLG
# BRD3, sequence (Q15059 20-477): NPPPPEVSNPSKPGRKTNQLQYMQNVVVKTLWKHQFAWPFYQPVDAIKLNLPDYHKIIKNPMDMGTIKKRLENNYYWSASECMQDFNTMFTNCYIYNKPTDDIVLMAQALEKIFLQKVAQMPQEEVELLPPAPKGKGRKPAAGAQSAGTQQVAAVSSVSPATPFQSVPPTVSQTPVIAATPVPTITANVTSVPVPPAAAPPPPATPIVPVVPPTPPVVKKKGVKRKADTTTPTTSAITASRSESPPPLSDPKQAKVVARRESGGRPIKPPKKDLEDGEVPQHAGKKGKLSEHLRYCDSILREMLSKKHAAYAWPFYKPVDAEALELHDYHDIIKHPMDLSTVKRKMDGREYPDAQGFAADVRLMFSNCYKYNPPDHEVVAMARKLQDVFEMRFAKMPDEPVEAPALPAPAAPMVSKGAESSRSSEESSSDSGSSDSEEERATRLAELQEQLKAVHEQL
Structure (SMILES),IC50 [1] [nM],IC50 [2] [nM],IC50 [3] [nM],IC50 [4] [nM],GI50 [5] [nM],MV-4-11 TGI [5] [nM],GI50 [6] [nM],THP-1 TGI [6] [nM],GI50 [7] [nM],K-562 TGI [7] [nM]
"Cc1cc(N2C(=O)c3cc(-c4ccccn4)n(C)c3C2c2ccc(Cl)cc2)cn(C)c1=O (stereo not drawn) [Example 52, 6-(4-chlorophenyl)-5-(1,5-dimethyl-6-oxo-1,6-dihydropyridin-3-yl)-1-methyl-2-(pyridin-2-yl)-5,6-dihydropyrrolo[3,4-b]pyrrol-4(1H)-one]",55.3,67,54,720,872,2355,776,2630,2750,>10000
"COc1cccc(-c2cc3c(n2C)C(c2ccc(Cl)cc2)N(c2cc(C)c(=O)n(C)c2)C3=O)n1 (stereo not drawn) [Example 59, 6-(4-chlorophenyl)-5-(1,5-dimethyl-6-oxo-1,6-dihydropyridin-3-yl)-2-(6-methoxypyridin-2-yl)-1-methyl-5,6-dihydropyrrolo[3,4-b]pyrrol-4(1H)-one]",72,80,78,940,74,106,86.3,136,297,>10000
"Cn1cc(N2C(=O)c3cc(-c4cccc(=O)n4C)n(C4CC4)c3C2c2ccc(Cl)cc2)cc(Cl)c1=O (stereo not drawn) [Example 62, 5-(5-chloro-1-methyl-6-oxo-1,6-dihydropyridin-3-yl)-6-(4-chlorophenyl)-1-cyclopropyl-2-(1-methyl-6-oxo-1,6-dihydropyridin-2-yl)-5,6-dihydropyrrolo[3,4-b]pyrrol-4(1H)-one]",170,140,130,270,226,329,758,1190,1030,>10000
"Cc1cc(N2C(=O)c3cc(-c4cccc(=O)n4C)n(C4CC4)c3C2c2ccc(Cl)cc2)cn(C)c1=O (stereo not drawn) [Example 63, 6-(4-chlorophenyl)-1-cyclopropyl-5-(1,5-dimethyl-6-oxo-1,6-dihydropyridin-3-yl)-2-(1-methyl-6-oxo-1,6-dihydropyridin-2-yl)-5,6-dihydropyrrolo[3,4-b]pyrrol-4(1H)-one]",120,100,85,180,94.4,160,426,788,680,>10000
"Cn1cc(N2C(=O)c3cc(-c4cccn(C)c4=O)n(C4CC4)c3C2c2ccc(Cl)cc2)cc(Cl)c1=O (stereo not drawn) [Example 64, 5-(5-chloro-1-methyl-6-oxo-1,6-dihydropyridin-3-yl)-6-(4-chlorophenyl)-1-cyclopropyl-2-(1-methyl-2-oxo-1,2-dihydropyridin-3-yl)-5,6-dihydropyrrolo[3,4-b]pyrrol-4(1H)-one]",85,50,82,1500,118,196,109,215.5,353,>10000
"Cc1cc(N2C(=O)c3cc(-c4ccc(=O)n(C)c4)n(C4CC4)c3C2c2ccc(Cl)cc2)cn(C)c1=O (stereo not drawn) [Example 67, 6-(4-chlorophenyl)-1-cyclopropyl-5-(1,5-dimethyl-6-oxo-1,6-dihydropyridin-3-yl)-2-(1-methyl-6-oxo-1,6-dihydropyridin-3-yl)-5,6-dihydropyrrolo[3,4-b]pyrrol-4(1H)-one]",88,42,85,300,66.7,118,143,353,404,>10000
"Cc1cc(N2C(=O)c3cc(C4CC4)n(C)c3C2c2ccc(Cl)cc2)cn(C)c1=O (stereo not drawn) [Example 68, 6-(4-chlorophenyl)-2-cyclopropyl-5-(1,5-dimethyl-6-oxo-1,6-dihydropyridin-3-yl)-1-methyl-5,6-dihydropyrrolo[3,4-b]pyrrol-4(1H)-one]",63.2,67.2,52.2,620,28.7,51.7,46.8,96,148,>10000
"Cc1cc(N2C(=O)c3cc(C)n(C)c3C2c2ccc(Cl)cc2)cn(C)c1=O (stereo not drawn) [Example 69, 6-(4-chlorophenyl)-5-(1,5-dimethyl-6-oxo-1,6-dihydropyridin-3-yl)-1,2-dimethyl-5,6-dihydropyrrolo[3,4-b]pyrrol-4(1H)-one]",121,159,87,1200,37.8,84.3,65,144,236,>10000
"Cc1cc(N2C(=O)c3ccn(C)c3C2c2ccc(Cl)cc2)cn(C)c1=O (stereo not drawn) [Example 72, 6-(4-chlorophenyl)-5-(1,5-dimethyl-6-oxo-1,6-dihydropyridin-3-yl)-1-methyl-5,6-dihydropyrrolo[3,4-b]pyrrol-4(1H)-one]",89.7,170,90.8,1430,76.4,125,159,301,294,>10000
"Cc1cc(N2C(=O)c3ccn(C)c3C2c2ccccc2)cn(C)c1=O (stereo not drawn) [Example 79, 5-(1,5-dimethyl-6-oxo-1,6-dihydropyridin-3-yl)-1-methyl-6-phenyl-5,6-dihydropyrrolo[3,4-b]pyrrol-4(1H)-one]",434,660,222,26800,295,496,396,904,1790,>10000
"Cc1cc(N2C(=O)c3ccn(C)c3C2c2ccc(Cl)c(F)c2)cn(C)c1=O (stereo not drawn) [Example 80, 6-(4-chloro-3-fluorophenyl)-5-(1,5-dimethyl-6-oxo-1,6-dihydropyridin-3-yl)-1-methyl-5,6-dihydropyrrolo[3,4-b]pyrrol-4(1H)-one]",154,292,147,1500,148,267,146,369.5,455,>10000
"Cc1ccc(C2c3c(ccn3C)C(=O)N2c2cc(C)c(=O)n(C)c2)cc1 (stereo not drawn) [Example 81, 5-(1,5-dimethyl-6-oxo-1,6-dihydropyridin-3-yl)-1-methyl-6-(p-tolyl)-5,6-dihydropyrrolo[3,4-b]pyrrol-4(1H)-one]",131,126,81.2,4500,79.8,121,149,300,721,>10000
"Cc1cc(N2C(=O)c3ccn(C)c3C2c2ccc(F)cc2)cn(C)c1=O (stereo not drawn) [Example 82, 5-(1,5-dimethyl-6-oxo-1,6-dihydropyridin-3-yl)-6-(4-fluorophenyl)-1-methyl-5,6-dihydropyrrolo[3,4-b]pyrrol-4(1H)-one]",195,230,140,4700,104,189,206,397,618,>10000
"Cc1cc(N2C(=O)c3ccn(C)c3C2c2ccc(C#N)cc2)cn(C)c1=O (stereo not drawn) [Example 83, 4-(5-(1,5-dimethyl-6-oxo-1,6-dihydropyridin-3-yl)-1-methyl-4-oxo-1,4,5,6-tetrahydropyrrolo[3,4-b]pyrrol-6-yl)benzonitrile]",322,273,200,7150,326,636,634,1270,1130,>10000
"COc1ccc(C2c3c(ccn3C)C(=O)N2c2cc(C)c(=O)n(C)c2)cc1 (stereo not drawn) [Example 84, 5-(1,5-dimethyl-6-oxo-1,6-dihydropyridin-3-yl)-6-(4-methoxyphenyl)-1-methyl-5,6-dihydropyrrolo[3,4-b]pyrrol-4(1H)-one]",230,196,161,4700,158,338.5,167,419.5,548,>10000
